Results as given in US9175282B2, “Cellobiose 2-epimerase, its preparation and uses” (HAYASHIBARA CO., LTD., priority 2009, dated 2015).

Tests used:
[1] = system: recombinant cellobiose 2-epimerase; assay: Formation of isomerized saccharides from various saccharides, effect of the amount of enzyme; assay type: biochemical, Caldicellulosiruptor saccharolyticus ATCC43494
Procedure: Each of them was dissolved into 20 mM acetate buffer (pH 6.0), admixed with the purified preparation of the recombinant cellobiose 2-epimerase, obtained by the method in Experiment 4-4, and followed the enzyme reaction under the conditions of 10% (w/v) substrate concentration, 60° C. for 72 hours. The amount of enzyme was set to 130 or 500 units/g-substrate when monosaccharide was used as the substrate, and to 1 or 130 units/g-substrate when disaccharide or trisaccharide was used as the substrate. Each reaction mixture was heated at 100° C. for 10 minutes to stop the reaction and subjected to HPLC analysis to determine the contents of isomerized saccharide, on a dry solid basis. The contents of epilactose and lactulose in the reaction mixture obtained using lactose as substrate were determined by GC analysis described in Experiment 1-2.

[2] = system: recombinant cellobiose 2-epimerase; assay: Substrate specificity of cellobiose 2-epimerase by TLC; assay type: biochemical, Caldicellulosiruptor saccharolyticus ATCC43494; set-up: key to Action: −: No product is detected; ±: Some products are slightly detected; +: Some products are detected; ++: Some products are clearly detected; details: for Action: 2% (w/w) substrate, MOPS buffer pH 8.0, 500 units/g-substrate, 60° C., 24 hours, product spot on TLC; for Action of the enzyme on the saccharide: summary of Table 3
Procedure: Substrate specificity of the enzyme was investigated by allowing the purified preparation of the recombinant cellobiose 2-epimerase, obtained by the method of Experiment 4-4, to act on various saccharides. Substrate solutions were prepared by dissolving D-glucose, D-xylose, D-allose, D-ribose, D-galactose, D-fructose, D-mannose, D-psicose, D-tagatose, L-sorbose, L-rhamnose, L-ribose, trehalose, kojibiose, nigerose, isomaltose, neotrehalose, gentiobiose, lactose, sucrose, maltulose, palatinose, maltose, maltotriose, maltotetraose, maltopentaose, maltohexaose, maltoheptaose, cellobiose, cellotriose, cellotetraose, selaginose, isomaltosyl-glucoside, isomaltotriose, panose, isopanose, erlose, maltitol, maltotriitol, methyl-α-glucoside, methyl-β-glucoside, D-glucosamine, D-galactosamine, D-glucuronic acid, N-acetyl-glucosamine, or N-acetyl-galactosamine into MOPS buffer (pH 8.0) to give a final concentration of 2% (w/w) of saccharide and 40 mM buffer.
Then, each of the resulting substrate solutions was further admixed with 500 units/g-substrate, on a dry solid basis, of the purified preparation of recombinant cellobiose 2-epimerase, obtained by the method in Experiment 4-4, and followed by the enzyme reaction at 60° C. for 24 hours. After stopping the reaction by heating the reaction mixture at 100° C. for 10 minutes, each reaction mixture was subjected to TLC analysis under the conditions in Experiment 1-2 to examine the saccharides in each mixture before and after the reaction. The substrate specificity of the enzyme was judged by investigating whether the spot of the reaction product except for the substrate is detected in the TLC chromatogram or not, and the degree of the strength of the visualized spot.

[3] = 1 unit/g-substrate, 10% (w/v) substrate, pH 6.0, 60° C., 72 hours
[4] = 130 units/g-substrate, 10% (w/v) substrate, pH 6.0, 60° C., 72 hours
[5] = 500 units/g-substrate, 10% (w/v) substrate, pH 6.0, 60° C., 72 hours

Row | SMILES | Action [2] | other results
1 | O=C[C@H](O)[C@@H](O)[C@H](O[C@@H]1O[C@H](CO)[C@@H](O)[C@H](O)[C@H]1O)[C@H](O)CO [Cellobiose] | ++ | Content of isomerized saccharide in the reaction mixture (%): Cellobiulose [1, 3]: 1.7%; Content of isomerized saccharide in the reaction mixture (%): Epicellobiose [1, 3]: 27.8%; Content of isomerized saccharide in the reaction mixture (%): Cellobiulose [1, 4]: 53.2%; Content of isomerized saccharide in the reaction mixture (%): Epicellobiose [1, 4]: 13.4%; Action of the enzyme on the substrate ([1]; summary of Table 5): relatively specifically acted; Action of the enzyme on the saccharide [2]: relatively strong specificity
2 | OC[C@H]1O[C@@H](O[C@H]2[C@H](O)[C@@H](O)[C@H](O[C@H]3[C@H](O)[C@@H](O)[C@H](O[C@H]4[C@H](O)[C@@H](O)C(O)O[C@@H]4CO)O[C@@H]3CO)O[C@@H]2CO)[C@H](O)[C@@H](O)[C@@H]1O (stereo partly shown) [Cellotetraose] | ++ | Action of the enzyme on the saccharide [2]: relatively strong specificity
3 | OC[C@H]1O[C@@H](O[C@H]2[C@H](O)[C@@H](O)[C@H](O[C@H]3[C@H](O)[C@@H](O)C(O)O[C@@H]3CO)O[C@@H]2CO)[C@H](O)[C@@H](O)[C@@H]1O (stereo partly shown) [Cellotriose] | ++ | Action of the enzyme on the saccharide [2]: relatively strong specificity
4 | O=C[C@H](O)[C@H](O)[C@H](O)[C@H](O)CO [D-Allose] | − | 
5 | O=C(CO)[C@@H](O)[C@H](O)[C@H](O)CO [D-Fructose] | ± | Content of isomerized saccharide in the reaction mixture (%): D-Glucose [1, 4]: 2.2%; Content of isomerized saccharide in the reaction mixture (%): D-Mannose [1, 4]: 2.2%; Action of the enzyme on the saccharide [2]: slightly acted on
6 | N[C@H]1C(O)O[C@H](CO)[C@H](O)[C@@H]1O (stereo partly drawn) [D-Galactosamine] | − | 
7 | N[C@H]1C(O)O[C@H](CO)[C@@H](O)[C@@H]1O (stereo partly drawn) [D-Glucosamine] | − | 
8 | O=C[C@H](O)[C@@H](O)[C@H](O)[C@H](O)C(=O)O [D-Glucuronic acid] | − | 
9 | O=C(CO)[C@H](O)[C@H](O)[C@H](O)CO [D-Psicose] | − | 
10 | O=C[C@H](O)[C@H](O)[C@H](O)CO [D-Ribose] | − | 
11 | O=C(CO)[C@@H](O)[C@@H](O)[C@H](O)CO [D-Tagatose] | ± | Content of isomerized saccharide in the reaction mixture (%): D-Galactose [1, 5]: 4.7%; Content of isomerized saccharide in the reaction mixture (%): D-Talose [1, 5]: 5.2%; Action of the enzyme on the saccharide [2]: slightly acted on
12 | O=C[C@@H](O)[C@@H](O)[C@@H](O)[C@H](O)CO [D-Talose] |  | Content of isomerized saccharide in the reaction mixture (%): D-Galactose [1, 5]: 27.2%; Content of isomerized saccharide in the reaction mixture (%): D-Tagatose [1, 5]: 17.9%
13 | O=C[C@H](O)[C@@H](O)[C@H](O)CO [D-Xylose] | − | 
14 | OC[C@H]1O[C@@](CO)(O[C@H]2O[C@H](CO)[C@@H](O[C@H]3O[C@H](CO)[C@@H](O)[C@H](O)[C@H]3O)[C@H](O)[C@H]2O)[C@@H](O)[C@@H]1O [Erlose] | − | 
15 | OC[C@H]1O[C@H](OC[C@H]2O[C@H](O)[C@H](O)[C@@H](O)[C@@H]2O)[C@H](O)[C@@H](O)[C@H]1O [Gentibiose] | − | 

Further lines, with some results ahead:

Row | Action [2] | SMILES | other results
16 | − | OC[C@H]1O[C@H](OC[C@H]2OC(O)[C@H](O)[C@@H](O)[C@@H]2O)[C@H](O)[C@@H](O)[C@@H]1O (stereo partly shown) [Isomaltose] | 
17 | − | OC[C@H]1O[C@H](OC[C@H]2O[C@H](OC[C@H]3OC(O)[C@H](O)[C@@H](O)[C@@H]3O)[C@H](O)[C@@H](O)[C@@H]2O)[C@H](O)[C@@H](O)[C@@H]1O (stereo partly shown) [Isomaltotriose] | 
18 | − | OC[C@H]1O[C@H](O[C@H]2[C@H](O)[C@@H](O)[C@@H](OC[C@H]3OC(O)[C@H](O)[C@@H](O)[C@@H]3O)O[C@@H]2CO)[C@H](O)[C@@H](O)[C@@H]1O (stereo partly shown) [Isopanose] | 
19 | − | OC[C@H]1O[C@H](O[C@H]2C(O)O[C@H](CO)[C@@H](O)[C@@H]2O)[C@H](O)[C@@H](O)[C@@H]1O (stereo partly shown) [Kojibiose] | 
20 | − | C[C@H](O)[C@H](O)[C@@H](O)[C@@H](O)C=O [L-Rhamnose] | 
21 | − | O=C[C@@H](O)[C@@H](O)[C@@H](O)CO [L-Ribose] | 
22 | − | O=C(CO)[C@@H](O)[C@H](O)[C@@H](O)CO [L-Sorbose] | 
